From ChEMBL document CHEMBL1201862, “PubChem BioAssay data set” (2004) come the findings set out here.

Some test systems named below: HCT-15; HL-60; UACC-62; KM12; OVCAR-4; CAKI-1; OVCAR-3; SK-MEL-5; BT-549; ACHN; NCI-H522; RPMI-8226; NCI-H226; SNB-19; SK-MEL-28; T47D; HOP-62; MDA-MB-231; RXF 393; TK-10.
What all share (assay): growth of human tumour cells (NCI), 48 h

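Five compound concentrations were applied to cells in 96-well plates for 48 hours; endpoints were derived by simple linear interpolation of the resulting dose-response curve. GI50: concentration for 50% inhibition of growth.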 Calls of active or inactive are those of the source. No stated cut-off is given here; in the data, active = GI50 up to about 1.1 µM and inactive = higher. Where only a bound is given, the exact number is not on record here.

Consider `C[C@@H]1CCC2[C@@H](C)[C@H](O[C@H]3O[C@@H]4O[C@@]5(C)CCC6[C@H](C)CCC([C@H]3C)[C@]64OO5)O[C@@H]3O[C@@]4(C)CCC1[C@@]23OO4` (stereo not given in full), for which the GI50 with HCT-15 is 0.022 µM; in the experiment with HL-60 it was 0.0243 µM (active); in the experiment on UACC-62, 0.0805 µM (active); in the experiment with KM12, 0.0317 µM (active); with OVCAR-4 it was 0.27 µM (active); in the experiment with CAKI-1 it was 0.27 µM (active). Further, the GI50 in the experiment on OVCAR-3 was 0.408 µM (active); with SK-MEL-5 it was 0.09 µM (active); with BT-549, 0.0553 µM (active); in the experiment on ACHN, 0.0953 µM (active); with NCI-H522, 0.0577 µM (active); in the experiment on RPMI-8226, 0.0127 µM (active). Besides, the GI50 in the experiment with NCI-H226 is 2.11 µM (inactive); in the experiment with SNB-19, 3.17 µM (inactive); in the experiment with SK-MEL-28, 5.69 µM (inactive); in the experiment on T47D, 0.0293 µM (active); in the experiment with HOP-62 it was 4.04 µM (inactive); in the experiment on MDA-MB-231, 0.385 µM (active). Moreover, the GI50 with RXF 393 is 1.3 µM (inactive); with TK-10 it was 0.205 µM (active).

As to `N=C(N)NS(=O)(=O)c1ccc(NNc2c3ccccc3nc3c(C(=O)Nc4ccc(S(N)(=O)=O)cc4)cccc23)cc1`, the GI50 was greater than 100 µM in the experiment with HCT-15; 23.9 µM (inactive) in the experiment with HL-60; 18.7 µM (inactive) in the experiment on UACC-62; 30.8 µM (inactive) with KM12; 51.2 µM (inactive) in the experiment with OVCAR-4; > 100 µM (inactive) in the experiment on CAKI-1. In addition, the GI50 was 22.9 µM (inactive) with OVCAR-3; 27.3 µM (inactive) in the experiment on SK-MEL-5; 19.5 µM (inactive) in the experiment on BT-549; 52.7 µM (inactive) in the experiment with ACHN; 14.7 µM (inactive) in the experiment with NCI-H522; 17.8 µM (inactive) with RPMI-8226. The GI50 is 92 µM (inactive) with NCI-H226; 22.9 µM (inactive) in the experiment with SNB-19; 68.1 µM (inactive) in the experiment on SK-MEL-28; 4.49 µM (inactive) in the experiment on T47D; 53.7 µM (inactive) in the experiment on HOP-62; 27.9 µM (inactive) in the experiment on MDA-MB-231. The results for the GI50 with RXF 393 and in the experiment with TK-10 were 40.6 µM (inactive) and > 100 µM (inactive), respectively.

As to `COc1ccc(/C=C/C(=N/NC(=O)N/N=C(/C=C/c2ccc(OC)cc2)C(C)C)C(C)C)cc1`, the GI50 in the experiment on HCT-15 is 49.5 µM; in the experiment with HL-60 it was 33 µM (inactive); in the experiment on UACC-62, > 100 µM (inactive); in the experiment on KM12, 51.2 µM (inactive); with OVCAR-4, > 100 µM (inactive); in the experiment with CAKI-1, > 100 µM (inactive). The GI50 with OVCAR-3 was 41.9 µM (inactive); in the experiment with SK-MEL-5 it was 95.9 µM (inactive); in the experiment with BT-549 it was > 100 µM (inactive); with ACHN, 73.8 µM (inactive); with NCI-H522 it was 63.1 µM (inactive); with RPMI-8226, 33.2 µM (inactive). For the same compound, the GI50 was > 100 µM (inactive) in the experiment with NCI-H226; > 100 µM (inactive) in the experiment with SNB-19; > 100 µM (inactive) in the experiment on SK-MEL-28; 25.9 µM (inactive) in the experiment with T47D; 22 µM (inactive) in the experiment on HOP-62; > 100 µM (inactive) in the experiment on MDA-MB-231. The values for the GI50 in the experiment on RXF 393 and with TK-10 were > 100 µM (inactive) and 50 µM (inactive), respectively.

Take `O/N=N/c1cnccn1`: the GI50 in the experiment with HCT-15 was greater than 1080 µM; with HL-60, 322 µM (inactive); in the experiment on UACC-62, > 959 µM (inactive); in the experiment on KM12, > 1250 µM (inactive); with OVCAR-4, > 438 µM (inactive); in the experiment on CAKI-1 it was 975 µM (inactive). The GI50 with OVCAR-3 was > 1250 µM (inactive); in the experiment on SK-MEL-5 it was > 1250 µM (inactive); in the experiment with BT-549, > 979 µM (inactive); in the experiment on ACHN it was 480 µM (inactive); with NCI-H522 it was 1030 µM (inactive); in the experiment with RPMI-8226, > 1250 µM (inactive). Besides, the GI50 in the experiment on NCI-H226 is 1250 µM (inactive); in the experiment with SNB-19, > 1250 µM (inactive); in the experiment with SK-MEL-28 it was > 1250 µM (inactive); with T47D, 933 µM (inactive); in the experiment on HOP-62, 218 µM (inactive); in the experiment with MDA-MB-231 it was > 1250 µM (inactive). The GI50 with RXF 393 and in the experiment on TK-10 was > 1250 µM (inactive) throughout.
